Test results as given in patent publication US20250214966A1, “Crystalline Salt Form Of A SHP2 Inhibitor” (Array BioPharma Inc., priority 2022, published 2025).
Counter-ions that a name gives are not always drawn.

Tests used:
Assay type in all cases: physicochemical
[1] = Physical stability (PXRD) after storage at 70° C.
Method: Physical Stability (PXRD) (Table 12): Powder X-ray diffraction analysis was conducted using a Bruker AXS D8 Endeavor diffractometer equipped with a Cu radiation source. The divergence slit was set at 10 mm continuous illumination. Diffracted radiation was detected by a PSD-Lynx Eye detector, with the detector PSD opening set at 2.99 degrees. The X-ray tube voltage and amperage were set to 40 kV and 40 mA respectively. Data was collected in the Theta-Theta goniometer at the Cu wavelength from 3.0 to 40.0 degrees 2-Theta using a step size of 0.02 degrees and a step time of 0.3 second. The antiscatter screen was set to a fixed distance of 1.5 mm. Samples were rotated at 15/min during collection. Samples were prepared by placing them in a silicon low background sample holder and rotated during collection. Data were collected using Bruker DIFFRAC Plus software and analysis was performed by EVA diffract plus software. A Small divot sample holder was used.
Physical Stability (PXRD) (Table 13): The Rigaku MiniFlex 6G Diffractometer used is equipped with a Cu radiation source. Diffracted radiation was detected by a D/teX Ultra2 detector. The X-ray tube voltage and amperages were set to 40 kV and 15 mA respectively. Data was collected in the Miniflex goniometer at the Cu wavelength from 3.0 to 45.0° 20 using a step width of 0.02° and a step speed of 2.00°/minute. The incident slit box was set to 1.25° and the length limiting slit was set at 10 mm. The sample was rotated at 10 RPM during collection. The data was analyzed using Rigaku software SmartLab Studio II.
The sample was prepared by placement into a silicon low background sample holder (0.2 indent plate). The sample was confirmed to be level and packed prior to measurement. The sample was not ground (by mortar and pestle, or by any other means) prior to placement in the sample holder.

[2] = Photostability (2xICH), HPLC
Excerpt: Photostability (Table 12): Sample preparation: Control—about 1 g of sample was transferred into a weighting bottle and covered with a glass cover. The sample was wrapped in aluminum foil to protect from light and placed into the photostability chamber. Photostability sample: about 1 g of sample was transferred into a weighing bottle, then placed into the photostability chamber. Storage conditions: The photostability samples were stored according to ICH Photostability Option 2: A cool white fluorescent lamp designed to produce an output similar to that specified in ISO 10977 (1993), a near UV fkuorescent lamp having a spectral distribution from 320 nm to 400 nm with a maximum energy emission between 350 nm and 370 nm; a significant portion of UV should be in both bands of 320 to 360 nm and 360 to 400 nm. The photo stability and dark control samples were exposed to the light equipment providing photo intensity if 5000±500 Lx (near ultraviolet energy 0.84 W/m^2±10%) and irradiated for 12 days (samples exposed to light providing an overall illumination of not less than 1.2 million lux hours and an integrated near UV energy of not less than 200 watt hours/quare meter).
Photostability (HPLC) (Table 12): An Agilent 1100 HPLC was used with a Waters XSelect HSS T3 Column (100 angstrom, 4.6×150 mm, 5 μm). The column temperature was set to 20° C., the UV wavelength set to 254 nm, the injection volume was 10 μL, with a flow rate of 1.0 mL/min. 10 mM ammonium acetate adjusted to pH 4.8 was used as a mobile phase A, and acetonitrile was used as mobile phase B. The gradient method was set up to achieve 15% mobile phase B at 0 minutes, 95% mobile phase B at 17 minutes—held until 22 minutes, 15% mobile phase. […]
Physical (PXRD) (Table 13): Powder X-ray diffraction analysis was conducted using a Bruker AXS D8 Endeavor diffractometer equipped with a Cu radiation source. […] Diffracted radiation was detected by a PSD-Lynx Eye detector, with the detector PSD opening set at 2.99 degrees. […]

[3] = Thermal analysis TGA/DSC (Tables 12 and 13); details: 10° C./minute heating rate
Method: Thermogravimetric Analysis (“TGA”) (Table 12): Thermogravimetric analysis was conducted using a Discovery TGA (TA instruments) thermogravimetric analyzer. Samples of approximately 10 mg were weighed into aluminum pans and heated from ambient to 300° C. at 10° C./minute heating rate under nitrogen purge (10 mL/min for both sample chamber and balance).
Differential Scanning Calorimetry (“DSC”) (Table 12): DSC measurements were performed with Discovery DSC (TA instruments) equipped with a refrigerated cooling accessory. All the experiments were performed in standard/Tzero aluminum pans. The cell constant was determined using indium and temperature calibration was performed using indium and tin as standards. All the measurements were done under continuous dry nitrogen purge (50 mL/min). Approximately 1-5 mg of solid sample was weighed into a Tzero aluminum pan, sealed non-hermetically and heated from 0° C. to 250° C. at 10° C./min heating rate. The experimental data were analyzed using commercially available software (TA Universal Analysis 2000/Trios software, TA Instruments).
TGA/DSC (Table 13): A Simultaneous DSC/TGA instrument was used for the thermal analysis. Approximately 3.2 mg of the API was placed in an aluminum Tzero DSC pan was loaded into the instrument via autosampler. The sample was equilibrated to 35° C. in the instrument prior to analysis and was ramped to 400° C. at a ramp rate of 10° C./min. Dry nitrogen gas from the in-house supply was used.

[4] = 70° C./75% RH, first of two lines so headed
[5] = printed 70° C./75% RH, second of two lines so headed

Physical Stability (70° C./75% RH) [1, 4]	Physical Stability (70° C./75% RH) [1, 5]	Photostability (2xICH), photodeg RRT 1.16 [2] [%]	Photostability (2xICH), photodeg RRT 1.62 [2] [%]	Decomposition Onset (° C.) [3] [°C]	Dehyradtion Onset (° C.) [3] [°C]	Photostability (2xICH), decrease in purity [2] [% decrease in purity]	SMILES
No change	No change	~0.36	~0.32	~240	~72		Nc1nccc(Sc2cnc(N3CCC4(CC3)Cc3ccccc3[C@H]4N)nn2)c1Cl.Nc1nccc(Sc2cnc(N3CCC4(CC3)Cc3ccccc3[C@H]4N)nn2)c1Cl.O [Example 2, (S)-1′-(6-((2-amino-3-chloropyridin-4-yl)thio)-1,2,4-triazin-3-yl)-1,3-dihydrospiro[indene-2,4′-piperidin]-1-amine Free Base Hemihydrate (Form 1)]
No change	No change			~180		0.53	Nc1nccc(Sc2cnc(N3CCC4(CC3)Cc3ccccc3[C@H]4N)nn2)c1Cl [Example 3, (S)-1′-(6-((2-amino-3-chloropyridin-4-yl)thio)-1,2,4-triazin-3-yl)-1,3-dihydrospiro[indene-2,4′-piperidin]-1-amine Mono Succinate Salt Form 1]
